Patent US12139492B2 (Endotarget Inc., priority 2021, dated 2024)

Assays:
Type in all cases: cell-based
[1] = tested on: Mino cells; assay: Antiproliferative effect, MTS cell viability assay, Mino cells; details: Homo sapiens, MINO, Mino mantle cell lymphoma cells; read-out: IC50 (anti-proliferation) Mino cells
Procedure, shortened: (§1)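 Mino and JeKo-1 mantle B-cell lymphoma lines were exposed to compound at 0, 0.001, 0.01, 0.1, 1 and 10 μM for 72 h. Viability was read by MTS reduction to formazan, measured as absorbance at 490 nm.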

[2] = tested on: JeKo-1 cells; assay: Antiproliferative effect, MTS cell viability assay, JeKo-1 cells; details: Homo sapiens; JeKo-1 mantle cell lymphoma cells; read-out: IC50 (anti-proliferation) JeKO-1 cells
Procedure, shortened: as §1

[3] = target: BTK (Homo sapiens, UniProt Q06187); assay: BTK degradation, DC50 and Dmax of Table 1 (cell line not given); parameters: endogenous in cells; details: for DC50: concentration giving 50% reduction of BTK expression level
BTK, sequence (Q06187 whole entry): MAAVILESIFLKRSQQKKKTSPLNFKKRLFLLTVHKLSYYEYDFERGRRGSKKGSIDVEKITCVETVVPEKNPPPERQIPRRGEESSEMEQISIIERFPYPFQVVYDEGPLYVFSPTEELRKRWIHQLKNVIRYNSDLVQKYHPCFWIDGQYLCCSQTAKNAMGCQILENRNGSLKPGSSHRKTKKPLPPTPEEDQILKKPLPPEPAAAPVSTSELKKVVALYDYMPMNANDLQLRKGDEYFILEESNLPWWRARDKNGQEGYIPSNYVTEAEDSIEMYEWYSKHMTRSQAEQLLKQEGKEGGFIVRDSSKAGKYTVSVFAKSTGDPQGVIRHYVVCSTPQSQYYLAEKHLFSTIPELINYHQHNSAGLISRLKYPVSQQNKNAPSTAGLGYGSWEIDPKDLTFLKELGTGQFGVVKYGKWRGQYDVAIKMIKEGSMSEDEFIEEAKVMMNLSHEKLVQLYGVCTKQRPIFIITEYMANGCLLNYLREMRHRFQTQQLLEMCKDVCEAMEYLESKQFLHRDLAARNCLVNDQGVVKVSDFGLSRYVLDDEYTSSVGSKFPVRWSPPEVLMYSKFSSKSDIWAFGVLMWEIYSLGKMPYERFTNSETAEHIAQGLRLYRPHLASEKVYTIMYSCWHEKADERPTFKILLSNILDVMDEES

| SMILES | IC50 [1] | IC50 [2] | Dmax [3] | DC50 [3] |
| --- | --- | --- | --- | --- |
| Nc1ncnc2c1c(-c1ccc(Oc3ccccc3)cc1)nn2[C@@H]1CCCN(C(=O)N2CCC(CCCN3CCN(c4ccc5c(c4)C(=O)N(C4CCC(=O)NC4=O)C5=O)CC3)CC2)C1 (stereo partly drawn) [Compound 105, 5-(4-(3-(1-((R)-3-(4-amino-3-(4-phenoxyphenyl)-1H-pyrazolo[3,4-d]pyrimidin-1-yl)piperidine-1-carbonyl)piperidin-4-yl)propyl)piperazin-1-yl)-2-(2,6-dioxopiperidin-3-yl)isoindoline-1,3-dione] | > 10000 nM | > 10000 nM | > 75% | > 50 nM |
| Nc1ncnc2c1c(-c1ccc(Oc3ccccc3)cc1)nn2[C@@H]1CCCN(C2CCN(C(=O)N3CCC(c4ccc5c(c4)CN(C4CCC(=O)NC4=O)C5=O)CC3)CC2)C1 (stereo partly drawn) [Compound 158, 3-(5-(1-((R)-3-(4-amino-3-(4-phenoxyphenyl)-1H-pyrazolo[3,4-d]pyrimidin-1-yl)-[1,4′-bipiperidine]-1′-carbonyl)piperidin-4-yl)-1-oxoisoindolin-2-yl)piperidine-2,6-dione] | > 10000 nM | > 10000 nM | > 50% | > 50 nM |
| Nc1ncnc2c1c(-c1ccc(Oc3ccccc3)cc1)nn2[C@@H]1CCCN(C2CCN(C(=O)N3CCC(CCN4CCN(c5ccc6c(c5)CN(C5CCC(=O)NC5=O)C6=O)CC4)CC3)CC2)C1 (stereo partly drawn) [Compound 182, 3-(5-(4-(2-(1-((R)-3-(4-amino-3-(4-phenoxyphenyl)-1H-pyrazolo[3,4-d]pyrimidin-1-yl)-[1,4′-bipiperidine]-1′-carbonyl)piperidin-4-yl)ethyl)piperazin-1-yl)-1-oxoisoindolin-2-yl)piperidine-2,6-dione] | 1000 to 10000 nM | 1000 to 10000 nM | > 75% | 10 to 50 nM |
| Nc1ncnc2c1c(-c1ccc(Oc3ccccc3)cc1)nn2C1CCN(C(=O)N2CCC(CCN3CCC(c4ccc5c(c4)C(=O)N(C4CCC(=O)NC4=O)C5=O)CC3)CC2)CC1 (stereo not drawn) [Compound 103, 5-(1-(2-(1-(4-(4-amino-3-(4-phenoxyphenyl)-1H-pyrazolo[3,4-d]pyrimidin-1-yl)piperidine-1-carbonyl)piperidin-4-yl)ethyl)piperidin-4-yl)-2-(2,6-dioxopiperidin-3-yl)isoindoline-1,3-dione] | > 10000 nM | 1000 to 10000 nM | > 90% | 10 to 50 nM |
| Nc1ncnc2c1c(-c1ccc(Oc3ccccc3)cc1)nn2[C@@H]1CCCN(C(=O)N2CCC(CCCC3CCN(c4ccc5c(c4)CN(C4CCC(=O)NC4=O)C5=O)CC3)CC2)C1 (stereo partly drawn) [Compound 114] | 1000 to 10000 nM | 1000 to 10000 nM | > 75% | > 50 nM |
| Nc1ncnc2c1c(-c1ccc(Oc3ccccc3)cc1)nn2[C@@H]1CCCN(C2CCN(C(=O)N3CCN(CCN4CCC(c5ccc6c(c5)C(=O)N(C5CCC(=O)NC5=O)C6=O)CC4)CC3)CC2)C1 (stereo partly drawn) [Compound 179, 5-(1-(2-(4-((R)-3-(4-amino-3-(4-phenoxyphenyl)-1H-pyrazolo[3,4-d]pyrimidin-1-yl)-[1,4′-bipiperidine]-1′-carbonyl)piperazin-1-yl)ethyl)piperidin-4-yl)-2-(2,6-dioxopiperidin-3-yl)isoindoline-1,3-dione] | 1000 to 10000 nM | > 10000 nM | > 75% | 10 to 50 nM |
| Nc1ncnc2c1c(-c1ccc(Oc3ccccc3)cc1)nn2[C@@H]1CCCN(CC2CCN(CCCC3CCN(c4ccc5c(c4)C(=O)N(C4CCC(=O)NC4=O)C5=O)CC3)CC2)C1 (stereo partly drawn) [Compound 141, 5-(4-(3-(4-(((R)-3-(4-amino-3-(4-phenoxyphenyl)-1H-pyrazolo[3,4-d]pyrimidin-1-yl)piperidin-1-yl)methyl)piperidin-1-yl)propyl)piperidin-1-yl)-2-(2,6-dioxopiperidin-3-yl)isoindoline-1,3-dione] | 1000 to 10000 nM | 1000 to 10000 nM | > 75% | > 50 nM |
| Nc1ncnc2c1c(-c1ccc(Oc3ccccc3)cc1)nn2[C@@H]1CCCN(C(=O)N2CCC(CN3CCC(c4ccc5c(c4)C(=O)N(C4CCC(=O)NC4=O)C5=O)CC3)CC2)C1 (stereo partly drawn) [Compound 61, 5-(1-((1-((R)-3-(4-amino-3-(4-phenoxyphenyl)-1H-pyrazolo[3,4-d]pyrimidin-1-yl)piperidine-1-carbonyl)piperidin-4-yl)methyl)piperidin-4-yl)-2-(2,6-dioxopiperidin-3-yl)isoindoline-1,3-dione] | < 1000 nM | < 1000 nM | > 90% | 10 to 50 nM |
| Nc1ncnc2c1c(-c1ccc(Oc3ccccc3)cc1)nn2[C@@H]1CCCN(C2CCN(C(=O)N3CCN(CCCN4CCN(c5ccc6c(c5)C(=O)N(C5CCC(=O)NC5=O)C6=O)CC4)CC3)CC2)C1 (stereo partly drawn) [Compound 187, 5-(4-(3-(4-((R)-3-(4-amino-3-(4-phenoxyphenyl)-1H-pyrazolo[3,4-d]pyrimidin-1-yl)-[1,4′-bipiperidine]-1′-carbonyl)piperazin-1-yl)propyl)piperazin-1-yl)-2-(2,6-dioxopiperidin-3-yl)isoindoline-1,3-dione] | 1000 to 10000 nM | 1000 to 10000 nM | > 75% | > 50 nM |
| Nc1ncnc2c1c(-c1ccc(Oc3ccccc3)cc1)nn2[C@@H]1CCCN(C2CCN(C(=O)N3CCN(CCCN4CCC(c5ccc6c(c5)C(=O)N(C5CCC(=O)NC5=O)C6=O)CC4)CC3)CC2)C1 (stereo partly drawn) [Compound 191, 5-(1-(3-(4-((R)-3-(4-amino-3-(4-phenoxyphenyl)-1H-pyrazolo[3,4-d]pyrimidin-1-yl)-[1,4′-bipiperidine]-1′-carbonyl)piperazin-1-yl)propyl)piperidin-4-yl)-2-(2,6-dioxopiperidin-3-yl)isoindoline-1,3-dione] | > 10000 nM | > 10000 nM | > 75% | 10 to 50 nM |
| Nc1ncnc2c1c(-c1ccc(Oc3ccccc3)cc1)nn2[C@@H]1CCCN(C(=O)N2CCN(CCCC3CCN(c4ccc5c(c4)C(=O)N(C4CCC(=O)NC4=O)C5=O)CC3)CC2)C1 (stereo partly drawn) [Compound 109, 5-(4-(3-(4-((R)-3-(4-amino-3-(4-phenoxyphenyl)-1H-pyrazolo[3,4-d]pyrimidin-1-yl)piperidine-1-carbonyl)piperazin-1-yl)propyl)piperidin-1-yl)-2-(2,6-dioxopiperidin-3-yl)isoindoline-1,3-dione] | > 10000 nM | > 10000 nM | > 75% | > 50 nM |
| Nc1ncnc2c1c(-c1ccc(Oc3ccccc3)cc1)nn2[C@@H]1CCCN(C(=O)N2CCN(CCN3CCN(c4ccc5c(c4)C(=O)N(C4CCC(=O)NC4=O)C5=O)CC3)CC2)C1 (stereo partly drawn) [Compound 65, 5-(4-(2-(4-((R)-3-(4-amino-3-(4-phenoxyphenyl)-1H-pyrazolo[3,4-d]pyrimidin-1-yl)piperidine-1-carbonyl)piperazin-1-yl)ethyl)piperazin-1-yl)-2-(2,6-dioxopiperidin-3-yl)isoindoline-1,3-dione] | 1000 to 10000 nM | 1000 to 10000 nM | > 90% | < 10 nM |
| Nc1ncnc2c1c(-c1ccc(Oc3ccccc3)cc1)nn2[C@@H]1CCCN(C(=O)N2CCC(CCC3CCN(c4ccc5c(c4)C(=O)N(C4CCC(=O)NC4=O)C5=O)CC3)CC2)C1 (stereo partly drawn) [Compound 71, 5-(4-(2-(1-((R)-3-(4-amino-3-(4-phenoxyphenyl)-1H-pyrazolo[3,4-d]pyrimidin-1-yl)piperidine-1-carbonyl)piperidin-4-yl)ethyl)piperidin-1-yl)-2-(2,6-dioxopiperidin-3-yl)isoindoline-1,3-dione] | 1000 to 10000 nM | 1000 to 10000 nM | > 90% | < 10 nM |
| Nc1ncnc2c1c(-c1ccc(Oc3ccccc3)cc1)nn2[C@@H]1CCCN(CC2CCN(CCCN3CCN(c4ccc5c(c4)CN(C4CCC(=O)NC4=O)C5=O)CC3)CC2)C1 (stereo partly drawn) [Compound 138, 3-(5-(4-(3-(4-(((R)-3-(4-amino-3-(4-phenoxyphenyl)-1H-pyrazolo[3,4-d]pyrimidin-1-yl)piperidin-1-yl)methyl)piperidin-1-yl)propyl)piperazin-1-yl)-1-oxoisoindolin-2-yl)piperidine-2,6-dione] | 1000 to 10000 nM | > 10000 nM | > 75% | 10 to 50 nM |
| Nc1ncnc2c1c(-c1ccc(Oc3ccccc3)cc1)nn2C1CCN(CCOCCOCCN2CCC(c3ccc4c(c3)C(=O)N(C3CCC(=O)NC3=O)C4=O)CC2)CC1 (stereo not drawn) [Compound 9, 5-(1-(2-(2-(2-(4-(4-amino-3-(4-phenoxyphenyl)-1H-pyrazolo[3,4-d]pyrimidin-1-yl)piperidin-1-yl)ethoxy)ethoxy)ethyl)piperidin-4-yl)-2-(2,6-dioxopiperidin-3-yl)isoindoline-1,3-dione] | 1000 to 10000 nM | 1000 to 10000 nM | > 90% | < 10 nM |
| Nc1ncnc2c1c(-c1ccc(Oc3ccccc3)cc1)nn2[C@@H]1CCCN(C(=O)N2CCC(CCC3CCN(c4ccc5c(c4)CN(C4CCC(=O)NC4=O)C5=O)CC3)CC2)C1 (stereo partly drawn) [Compound 72, 3-(5-(4-(2-(1-((R)-3-(4-amino-3-(4-phenoxyphenyl)-1H-pyrazolo[3,4-d]pyrimidin-1-yl)piperidine-1-carbonyl)piperidin-4-yl)ethyl)piperidin-1-yl)-1-oxoisoindolin-2-yl)piperidine-2,6-dione] | 1000 to 10000 nM | 1000 to 10000 nM | > 90% | < 10 nM |
| Nc1ncnc2c1c(-c1ccc(Oc3ccccc3)cc1)nn2[C@@H]1CCCN(CC2CCN(CCC3CCN(c4ccc5c(c4)C(=O)N(C4CCC(=O)NC4=O)C5=O)CC3)CC2)C1 (stereo partly drawn) [Compound 131] | 1000 to 10000 nM | 1000 to 10000 nM | > 75% | 10 to 50 nM |
| Nc1ncnc2c1c(-c1ccc(Oc3ccccc3)cc1)nn2[C@@H]1CCCN(C(=O)N2CCN(CCN3CCC(c4ccc5c(c4)CN(C4CCC(=O)NC4=O)C5=O)CC3)CC2)C1 (stereo partly drawn) [Compound 70, 3-(5-(1-(2-(4-((R)-3-(4-amino-3-(4-phenoxyphenyl)-1H-pyrazolo[3,4-d]pyrimidin-1-yl)piperidine-1-carbonyl)piperazin-1-yl)ethyl)piperidin-4-yl)-1-oxoisoindolin-2-yl)piperidine-2,6-dione] | 1000 to 10000 nM | 1000 to 10000 nM | > 90% | < 10 nM |
